Measurements reported in PubChem BioAssay (NCI).
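Values below derive from 48-hour exposures of cells grown in 96-well plates, with endpoints linearly interpolated between the two concentrations bracketing the appropriate inhibition level. TGI: concentration producing complete growth inhibition.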

What was measured:
Test in all cases: inhibition of tumour cell growth, NCI panel, 48 h
[1] = test system: K-562 leukemia
[2] = test system: LOX IMVI melanoma
[3] = test system: OVCAR-3 ovarian
[4] = test system: SF-295 CNS
[5] = test system: M14 melanoma
[6] = test system: UO-31 renal
[7] = test system: SK-MEL-5 melanoma
[8] = test system: NCI-H460 lung
[9] = test system: NCI-H23 lung
[10] = test system: MALME-3M melanoma

Row | SMILES | TGI [1] [µM] | TGI [2] [µM] | TGI [3] [µM] | TGI [4] [µM] | TGI [5] [µM] | TGI [6] [µM] | TGI [7] [µM] | TGI [8] [µM] | TGI [9] [µM] | TGI [10] [µM]
1 | C/C(=N\NC(N)=S)C(CN(CC(C)C)CC(C)C)C(=O)Nc1ccc(C)cc1C (stereo not given) | > 100 | > 100 | > 100 | > 100 | > 100 | > 100 | > 100 | > 100 | > 100 | > 100
2 | COc1cc(/C=C2\N=C(c3ccccc3)N(c3nc4c(OC)ccc(OC)c4s3)C2=O)cc(OC)c1OC | > 100 | > 100 | > 100 | > 100 | > 100 | > 100 | > 100 | > 100 | > 100 | > 100
3 | O=C(OCc1ccccc1)C1(N2CN(C3(C(=O)OCc4ccccc4)CCCC3)CN(C3(C(=O)OCc4ccccc4)CCCC3)C2)CCCC1 | > 10 | > 10 | > 10 | > 10 | > 10 | > 10 | > 10 | > 10 | > 10 | > 10
4 | CCCCCCCCCCCCCCCCCCNc1ccn(C2OC(COP(=O)(O)OCC3OC(n4cc(C)c(=O)[nH]c4=O)CC3N=[N+]=[N-])C(O)C2O)c(=O)n1 (stereo not given) | 50.3 | 37.8 | > 100 | 32.6 | 36.1 | 58.8 | 57.2 | 36.6 | 36 | 32.1
5 | O=[N+]([O-])c1ccc(N=Nc2c(O)c(S(=O)(=O)O)cc3cc(S(=O)(=O)O)ccc23)cc1 | > 100 | > 100 | > 100 | > 100 | > 100 | > 100 | > 100 | > 100 | > 100 | > 100
6 | C(=C\c1ccccc1)/C=N/c1nc2cc3sc(/N=C/C=C/c4ccccc4)nc3cc2s1 | > 100 | > 100 | > 100 | > 100 | > 100 | > 100 | > 100 | > 100 | > 100 | > 100
7 | CN(C)CCNC(=O)c1cccc2nc3c(nc12)-c1ccccc1C3=O | > 100 | 12.7 | 43.2 | 39 | 31.9 | 39.1 | 25.1 | 18.9 | 35.4 | 24.2
8 | O=C1Cc2c([nH]c3ccc(Br)cc23)-c2ccccc2N1 | > 100 | > 100 | > 100 | > 100 | > 100 | > 100 | > 100 | > 100 | > 100 | > 100
9 | O=C1C=C(Br)c2c(Br)sc(Br)c21 | > 36.7 | 5.77 | 31.4 | 99.4 | 15 | 10.3 | 31.4 | > 61.8 | 25.6 | 35.2
10 | O=C1COc2ccc([N+](=O)[O-])cc2C(=O)C1 | > 10 | > 10 | > 10 | > 10 | > 10 | > 10 | > 10 | > 10 | > 10 | > 10
11 | Cc1sc(/N=C/c2c[nH]c3ccccc23)c(C#N)c1C | > 100 | > 100 | 66.1 | > 100 | > 100 | > 100 | 53.2 | > 100 | > 100 | > 100
